Experimental data taken from ChEMBL document CHEMBL2074248, “Regulation of biliary drug efflux pump expression by hormones and xenobiotics” (Toxicology, 2001).

Experiments:
Bile salt export pump [1] = target: T1, Bile salt export pump (Rattus norvegicus, UniProt O70127); assay: TP_TRANSPORTER: Northern blot in vivo rat; format: functional, organism-based, Liver
T1 sequence (O70127 whole entry): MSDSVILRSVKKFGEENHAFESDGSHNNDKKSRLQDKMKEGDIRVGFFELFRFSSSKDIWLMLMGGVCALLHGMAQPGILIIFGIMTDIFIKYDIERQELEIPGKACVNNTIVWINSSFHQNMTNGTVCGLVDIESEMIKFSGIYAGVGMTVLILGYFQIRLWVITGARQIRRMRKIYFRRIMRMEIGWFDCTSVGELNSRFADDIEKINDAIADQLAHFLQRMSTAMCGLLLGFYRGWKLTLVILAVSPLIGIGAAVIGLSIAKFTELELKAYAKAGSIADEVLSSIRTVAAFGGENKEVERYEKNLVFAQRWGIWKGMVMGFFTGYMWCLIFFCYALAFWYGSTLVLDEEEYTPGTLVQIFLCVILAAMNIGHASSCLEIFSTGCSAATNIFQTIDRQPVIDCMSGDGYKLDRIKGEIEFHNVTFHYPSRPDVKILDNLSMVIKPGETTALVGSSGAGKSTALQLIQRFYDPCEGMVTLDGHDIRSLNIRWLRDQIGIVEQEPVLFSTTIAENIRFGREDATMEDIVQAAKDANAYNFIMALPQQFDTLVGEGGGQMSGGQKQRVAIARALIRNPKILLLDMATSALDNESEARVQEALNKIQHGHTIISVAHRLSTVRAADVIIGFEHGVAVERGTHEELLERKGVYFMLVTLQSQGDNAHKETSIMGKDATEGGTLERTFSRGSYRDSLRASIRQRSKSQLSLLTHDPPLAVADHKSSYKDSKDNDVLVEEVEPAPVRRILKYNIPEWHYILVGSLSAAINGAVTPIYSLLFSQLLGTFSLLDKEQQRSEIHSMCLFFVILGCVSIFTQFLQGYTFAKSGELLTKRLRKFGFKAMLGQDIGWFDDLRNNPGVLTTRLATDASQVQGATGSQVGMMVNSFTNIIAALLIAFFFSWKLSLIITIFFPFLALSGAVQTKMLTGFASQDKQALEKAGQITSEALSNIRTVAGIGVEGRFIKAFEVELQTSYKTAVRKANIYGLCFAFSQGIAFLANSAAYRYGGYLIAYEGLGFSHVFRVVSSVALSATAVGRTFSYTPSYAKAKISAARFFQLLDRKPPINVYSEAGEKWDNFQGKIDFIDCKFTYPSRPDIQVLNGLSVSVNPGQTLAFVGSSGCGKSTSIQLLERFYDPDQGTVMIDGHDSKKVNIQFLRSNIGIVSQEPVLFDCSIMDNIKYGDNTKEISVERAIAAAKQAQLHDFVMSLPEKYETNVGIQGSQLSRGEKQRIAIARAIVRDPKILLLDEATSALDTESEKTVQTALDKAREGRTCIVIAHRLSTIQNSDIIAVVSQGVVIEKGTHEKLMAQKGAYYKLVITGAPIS

Bile salt export pump [2] = target: T1, Bile salt export pump; assay: TP_TRANSPORTER: Northern blot from primary hepatocytes; format: functional, cell-based, Sprague-Dawley, Hepatocyte

- Activity (Bile salt export pump [1]): inducer [+]
- Activity (Bile salt export pump [2]): inducer [+]
Compound: C[C@@H]1C[C@H]2[C@@H]3CCC4=CC(=O)C=C[C@]4(C)[C@@]3(F)[C@@H](O)C[C@]2(C)[C@@]1(O)C(=O)CO [DEXAMETHASONE]
